Assay results as given in article PMC4867616, “Imaging of Cerebral Amyloid Angiopathy with Bivalent ^99mTc-Hydroxamamide Complexes” (Scientific Reports, 2016).
Several values for one entry are separate records, joined by “and”; a condition that tells them apart may be missing. Equal values may be shown once.

Key:
[1] = Ex vivo biodistribution in normal mice; set-up: species or system ddY mice; conditions: i.v., mean (SD), 5 animals
Description: To evaluate brain uptake of ^99mTc-Ham complexes, biodistribution experiments of ^99mTc-Ham complexes were performed in normal mice. We selected ^18F-florbetapir as a control and compared the results of ^99mTc-Ham complexes with that of ^18F-florbetapir (Fig. 2). The brain uptake of [^99mTc]SB1A, [^99mTc]SB2A, [^99mTc]BT1B, and [^99mTc]BT2B at 2 min postinjection was 0.37, 0.28, 0.36, and 0.37% injected dose (ID)/g, respectively. The radioactivity in the brains remained low until 60 min postinjection. The results of the biodistribution study are shown in Table S1 in Supplementary information.
A saline solution (100 μL) of ^99mTc-Ham complexes (20 kBq) containing EtOH (10 μL) was injected directly into the tail vein of ddY mice (male, 5 weeks old). The mice were sacrificed at 2, 10, 30, and 60 min postinjection. The organs of interest were removed and weighed, and radioactivity was measured using a γ counter (PerkinElmer). The %ID/g of samples was calculated by comparing the sample counts with the count of the diluted initial dose.
*Corresponding author: M. Ono. Address: 46-29 Yoshida Shimoadachi-cho, Sakyo-ku, Kyoto 606-8501, Japan, Phone: +81-75-753-4608, Fax: +81-75-753-4568, E-mail: ono@pharm.kyoto-u.ac.jp. Ex vivo biodistribution in normal mice. A saline solution (100 μL) of ^99mTc-Ham complexes (20 kBq) containing EtOH (10 μL) was injected directly into the tail vein of ddY mice (male, 5 weeks old). The mice were sacrificed at 2, 10, 30, and 60 min postinjection. The organs of interest were removed and weighed, and radioactivity was measured using a γ counter (Wallac 1470 Wizard; PerkinElmer, Massachusetts, USA). Percentage dose per organ was calculated by comparing the tissue counts to suitably diluted aliquots of the injected material. The %dose/g of samples was calculated by comparing the sample counts with the count of the diluted initial dose.

[2] = normal mice, 2 min postinjection, similar experimental conditions; cited from earlier work
[3] = target: Aβ; set-up: method as in PMID 12801237, PMID 19837759; conditions: order of magnitude only; cited from earlier work

CN(C)c1ccc(/C=C/c2ccc(C3=N[O][99Tc-]4(=[O])([NH]C(c5ccc(N(C)C)cc5)=N[O]4)[NH2+]3)cc2)cc1 (single isomer, unassigned) [[^99mTc]SB1A]
Biodistribution of radioactivity, Blood ([1]; 2 min after injection): 18.89 (4.57) % injected dose per gram | Biodistribution of radioactivity, Brain ([1]; 2 min after injection): 0.37 % injected dose per gram and 0.37 (0.05) % injected dose per gram | Biodistribution of radioactivity, Heart ([1]; 2 min after injection): 9.48 (2.01) % injected dose per gram | Biodistribution of radioactivity, Intestine ([1]; 2 min after injection): 1.94 (0.25) % injected dose per gram | Biodistribution of radioactivity, Kidney ([1]; 2 min after injection): 10.74 (2.03) % injected dose per gram | Biodistribution of radioactivity, Liver ([1]; 2 min after injection): 28.55 (4.86) % injected dose per gram | Biodistribution of radioactivity, Lung ([1]; 2 min after injection): 15.47 (4.14) % injected dose per gram | Biodistribution of radioactivity, Pancreas ([1]; 2 min after injection): 4.12 (0.62) % injected dose per gram | Biodistribution of radioactivity, Spleen ([1]; 2 min after injection): 9.73 (3.34) % injected dose per gram | Biodistribution of radioactivity, Stomach ([1]; 2 min after injection): 1.64 (0.41) % injected dose per organ | Biodistribution of radioactivity, Blood ([1]; 10 min after injection): 9.30 (1.96) % injected dose per gram | Biodistribution of radioactivity, Brain ([1]; 10 min after injection): 0.19 (0.02) % injected dose per gram | Biodistribution of radioactivity, Heart ([1]; 10 min after injection): 6.51 (0.77) % injected dose per gram | Biodistribution of radioactivity, Intestine ([1]; 10 min after injection): 4.27 (0.88) % injected dose per gram | Biodistribution of radioactivity, Kidney ([1]; 10 min after injection): 9.48 (1.28) % injected dose per gram | Biodistribution of radioactivity, Liver ([1]; 10 min after injection): 31.03 (2.29) % injected dose per gram | Biodistribution of radioactivity, Lung ([1]; 10 min after injection): 9.67 (0.88) % injected dose per gram | Biodistribution of radioactivity, Pancreas ([1]; 10 min after injection): 3.09 (0.38) % injected dose per gram | Biodistribution of radioactivity, Spleen ([1]; 10 min after injection): 9.70 (3.03) % injected dose per gram | Biodistribution of radioactivity, Stomach ([1]; 10 min after injection): 4.54 (0.97) % injected dose per organ | Biodistribution of radioactivity, Blood ([1]; 30 min after injection): 6.06 (0.29) % injected dose per gram | Biodistribution of radioactivity, Brain ([1]; 30 min after injection): 0.16 (0.03) % injected dose per gram | Biodistribution of radioactivity, Heart ([1]; 30 min after injection): 2.98 (0.63) % injected dose per gram | Biodistribution of radioactivity, Intestine ([1]; 30 min after injection): 7.06 (1.67) % injected dose per gram | Biodistribution of radioactivity, Kidney ([1]; 30 min after injection): 6.18 (0.84) % injected dose per gram | Biodistribution of radioactivity, Liver ([1]; 30 min after injection): 20.17 (3.18) % injected dose per gram | Biodistribution of radioactivity, Lung ([1]; 30 min after injection): 5.31 (0.67) % injected dose per gram | Biodistribution of radioactivity, Pancreas ([1]; 30 min after injection): 1.74 (0.33) % injected dose per gram | Biodistribution of radioactivity, Spleen ([1]; 30 min after injection): 7.86 (1.11) % injected dose per gram | Biodistribution of radioactivity, Stomach ([1]; 30 min after injection): 10.28 (2.03) % injected dose per organ | Biodistribution of radioactivity, Blood ([1]; 60 min after injection): 2.71 (0.14) % injected dose per gram | Biodistribution of radioactivity, Brain ([1]; 60 min after injection): 0.08 (0.00) % injected dose per gram | Biodistribution of radioactivity, Heart ([1]; 60 min after injection): 4.30 (0.14) % injected dose per gram | Biodistribution of radioactivity, Intestine ([1]; 60 min after injection): 14.34 (2.35) % injected dose per gram | Biodistribution of radioactivity, Kidney ([1]; 60 min after injection): 9.66 (0.18) % injected dose per gram | Biodistribution of radioactivity, Liver ([1]; 60 min after injection): 22.16 (2.20) % injected dose per gram | Biodistribution of radioactivity, Lung ([1]; 60 min after injection): 5.14 (0.29) % injected dose per gram | Biodistribution of radioactivity, Pancreas ([1]; 60 min after injection): 2.67 (0.07) % injected dose per gram | Biodistribution of radioactivity, Spleen ([1]; 60 min after injection): 5.44 (0.49) % injected dose per gram | Biodistribution of radioactivity, Stomach ([1]; 60 min after injection): 6.63 (1.12) % injected dose per organ

CNc1ccc(/C=C/c2ccc(OCCOCCOCCF)nc2)cc1 [[^18F]florbetapir, reference compound]
Initial brain uptake [2]: 4.90 %ID/g | Kd [3]: nM order

CN(C)c1ccc(C2=N[O][99Tc-]3(=[O])([NH]2)[NH2+]C(c2ccc4nc(-c5ccc(N(C)C)cc5)sc4c2)=N[O]3)cc1 [[^99mTc]BT1B]
Biodistribution of radioactivity, Blood ([1]; 2 min after injection): 18.61 (2.47) % injected dose per gram | Biodistribution of radioactivity, Brain ([1]; 2 min after injection): 0.36 % injected dose per gram and 0.36 (0.03) % injected dose per gram | Biodistribution of radioactivity, Heart ([1]; 2 min after injection): 5.25 (0.22) % injected dose per gram | Biodistribution of radioactivity, Intestine ([1]; 2 min after injection): 0.90 (0.25) % injected dose per gram | Biodistribution of radioactivity, Kidney ([1]; 2 min after injection): 5.94 (0.73) % injected dose per gram | Biodistribution of radioactivity, Liver ([1]; 2 min after injection): 19.90 (4.06) % injected dose per gram | Biodistribution of radioactivity, Lung ([1]; 2 min after injection): 10.87 (2.06) % injected dose per gram | Biodistribution of radioactivity, Pancreas ([1]; 2 min after injection): 1.80 (0.28) % injected dose per gram | Biodistribution of radioactivity, Spleen ([1]; 2 min after injection): 3.83 (0.84) % injected dose per gram | Biodistribution of radioactivity, Stomach ([1]; 2 min after injection): 1.39 (0.21) % injected dose per organ | Biodistribution of radioactivity, Blood ([1]; 10 min after injection): 9.34 (2.62) % injected dose per gram | Biodistribution of radioactivity, Brain ([1]; 10 min after injection): 0.17 (0.04) % injected dose per gram | Biodistribution of radioactivity, Heart ([1]; 10 min after injection): 3.30 (1.02) % injected dose per gram | Biodistribution of radioactivity, Intestine ([1]; 10 min after injection): 2.00 (0.86) % injected dose per gram | Biodistribution of radioactivity, Kidney ([1]; 10 min after injection): 4.29 (1.25) % injected dose per gram | Biodistribution of radioactivity, Liver ([1]; 10 min after injection): 25.64 (6.77) % injected dose per gram | Biodistribution of radioactivity, Lung ([1]; 10 min after injection): 6.50 (1.41) % injected dose per gram | Biodistribution of radioactivity, Pancreas ([1]; 10 min after injection): 1.58 (0.55) % injected dose per gram | Biodistribution of radioactivity, Spleen ([1]; 10 min after injection): 3.00 (0.82) % injected dose per gram | Biodistribution of radioactivity, Stomach ([1]; 10 min after injection): 3.76 (0.82) % injected dose per organ | Biodistribution of radioactivity, Blood ([1]; 30 min after injection): 5.84 (0.65) % injected dose per gram | Biodistribution of radioactivity, Brain ([1]; 30 min after injection): 0.11 (0.02) % injected dose per gram | Biodistribution of radioactivity, Heart ([1]; 30 min after injection): 2.72 (0.28) % injected dose per gram | Biodistribution of radioactivity, Intestine ([1]; 30 min after injection): 6.81 (2.03) % injected dose per gram | Biodistribution of radioactivity, Kidney ([1]; 30 min after injection): 5.24 (0.59) % injected dose per gram | Biodistribution of radioactivity, Liver ([1]; 30 min after injection): 27.06 (2.49) % injected dose per gram | Biodistribution of radioactivity, Lung ([1]; 30 min after injection): 5.00 (0.34) % injected dose per gram | Biodistribution of radioactivity, Pancreas ([1]; 30 min after injection): 1.72 (0.11) % injected dose per gram | Biodistribution of radioactivity, Spleen ([1]; 30 min after injection): 3.11 (0.48) % injected dose per gram | Biodistribution of radioactivity, Stomach ([1]; 30 min after injection): 8.24 (1.41) % injected dose per organ | Biodistribution of radioactivity, Blood ([1]; 60 min after injection): 3.51 (0.34) % injected dose per gram | Biodistribution of radioactivity, Brain ([1]; 60 min after injection): 0.08 (0.02) % injected dose per gram | Biodistribution of radioactivity, Heart ([1]; 60 min after injection): 1.64 (0.32) % injected dose per gram | Biodistribution of radioactivity, Intestine ([1]; 60 min after injection): 9.95 (2.65) % injected dose per gram | Biodistribution of radioactivity, Kidney ([1]; 60 min after injection): 3.20 (0.45) % injected dose per gram | Biodistribution of radioactivity, Liver ([1]; 60 min after injection): 19.04 (3.61) % injected dose per gram | Biodistribution of radioactivity, Lung ([1]; 60 min after injection): 2.78 (0.54) % injected dose per gram | Biodistribution of radioactivity, Pancreas ([1]; 60 min after injection): 1.11 (0.18) % injected dose per gram | Biodistribution of radioactivity, Spleen ([1]; 60 min after injection): 1.36 (0.54) % injected dose per gram | Biodistribution of radioactivity, Stomach ([1]; 60 min after injection): 6.47 (0.85) % injected dose per organ

Thioflavin-S
Kd [3]: μM order
